Several values for one entry are separate records, joined by “and”; a condition that tells them apart may be missing. Equal values may be shown once. Where a name gives a salt, the structure may show the parent alone.
Structure (SMILES)	melting point
COC(=O)c1nc(N2CCCC2=O)c2cc(Cc3ccc(F)cc3)cnc2c1O	260 to 262 °C
COC(=O)c1nc(NC(=O)Nc2ccccc2)c2cc(Cc3ccc(F)cc3)cnc2c1O	254 to 255 °C
CN(C)NC(=O)c1nc(-c2ccc(CO)cc2)c2cc(Cc3ccc(F)cc3)cnc2c1O	219 to 221 °C
COC(=O)c1nc(N2CCCCS2(=O)=O)c2cc(Cc3ccccc3)cnc2c1O	183 to 185 °C and 186 °C
CC(C)NC(=O)c1nc(NS(C)(=O)=O)c2cc(Cc3ccc(F)cc3)cnc2c1O	167 to 168 °C
O=C(NCc1ccc(F)cc1)c1c(O)c2ncc(Cc3ccccc3)cc2[nH]c1=O	> 300 °C
CC(C)OC(=O)c1cc(C(=O)O)c2cc(Cc3ccc(F)cc3)cnc2c1O	249 to 251 °C (dec.)
CCCOC(=O)c1cc(C(=O)O)c2cc(Cc3ccc(F)cc3)cnc2c1O	249 to 251 °C (dec.)
CCC(=O)c1cc(C(=O)O)c2cc(Cc3ccc(F)cc3)cnc2c1O	235 to 237 °C
COCCCCC(=O)c1cc(C(=O)O)c2cc(Cc3ccc(F)cc3)cnc2c1O	216 to 218 °C
COC(=O)c1cc(NC(=O)C(F)(F)F)c2cc(Cc3ccc(F)cc3)cnc2c1O	191 to 192 °C
COC(=O)c1cc(N(C=O)C=O)c2cc(Cc3ccc(F)cc3)cnc2c1O	243 to 245 °C
COCc1cc(C(=O)OC)c(O)c2ncc(Cc3ccc(F)cc3)cc12	110 to 111 °C
CCN(c1cc(C(=O)OC)c(O)c2ncc(Cc3ccc(F)cc3)cc12)S(C)(=O)=O	149 to 150 °C
COC(=O)c1cc(CN2C(=O)CCCC2=O)c2cc(Cc3ccc(F)cc3)cnc2c1O	154 to 156 °C
COC(=O)Cc1cc(C(=O)OC)c(O)c2ncc(Cc3ccc(F)cc3)cc12	168 to 169 °C
CNC(=O)c1cc(C(=O)O)c2cc(Cc3ccc(F)cc3)cnc2c1O	203 to 205 °C
CN(C)C(=O)c1cc(C(=O)O)c2cc(Cc3ccc(F)cc3)cnc2c1O	214.5 to 215.5 °C
COC(=O)c1cc(-c2ccccc2C=O)c2cc(Cc3ccc(F)cc3)cnc2c1O	73 to 75 °C
COC(=O)c1cc(C(N)=O)c2cc(Cc3ccc(F)cc3)cnc2c1OC(C)=O	206 °C
COC(=O)c1cc(NCC(C)C)c2cc(Cc3ccc(F)cc3)cnc2c1O	249 to 251 °C

Structure (SMILES)	melting point
COCC(=O)Nc1cc(C(=O)OC)c(O)c2ncc(Cc3ccc(F)cc3)cc12	154 to 155 °C
COC(=O)c1cc(N2CCNC2=O)c2cc(Cc3ccc(F)cc3)cnc2c1O	248 to 250 °C
COC(=O)c1cc(NC(=O)COc2ccccc2)c2cc(Cc3ccc(F)cc3)cnc2c1O	172 to 173 °C
CC(=O)N1CCC(OC(=O)c2cc(C(=O)NN(C)C)c3cc(Cc4ccc(F)cc4)cnc3c2O)CC1	92 to 93 °C
COC(=O)c1cc(C(=O)NC2CCOCC2)c2cc(Cc3ccc(F)cc3)cnc2c1O	246 to 247 °C
COC(=O)c1cc(C(=O)NCCC2CCOCC2)c2cc(Cc3ccc(F)cc3)cnc2c1O	198 to 199 °C
COC(=O)c1cc(C(=O)N2CCSCC2)c2cc(Cc3ccc(F)cc3)cnc2c1O	184 to 185 °C
COC(=O)c1cc(C(=O)Nc2ccncn2)c2cc(Cc3ccc(F)cc3)cnc2c1O	241 to 242 °C
COC(=O)c1cc(C(=O)NNC(=O)c2ccccn2)c2cc(Cc3ccc(F)cc3)cnc2c1O	164 to 166 °C
COCCCNC(=O)c1cc(C(=O)OC)c(O)c2ncc(Cc3ccc(F)cc3)cc12	166 to 167 °C
CCOCCNC(=O)c1cc(C(=O)OC)c(O)c2ncc(Cc3ccc(F)cc3)cc12	174 to 175 °C
COC(=O)c1cc(C(=O)NCCN(C)C)c2cc(Cc3ccc(F)cc3)cnc2c1O	115 to 116 °C
COC(=O)c1cc(C(=O)N(C)CC(=O)N(C)C)c2cc(Cc3ccc(F)cc3)cnc2c1O	99 to 100 °C
COC(=O)c1cc(C(=O)NCCOCCO)c2cc(Cc3ccc(F)cc3)cnc2c1O	162 to 163 °C
COC(=O)c1cc(C(=O)N2CCC(O)CC2)c2cc(Cc3ccc(F)cc3)cnc2c1O	196 to 197 °C
COC(=O)c1cc(C(=O)N2CCCC(=O)C2)c2cc(Cc3ccc(F)cc3)cnc2c1O	228 to 229 °C
CCOC(=O)CNNC(=O)c1cc(C(=O)OC)c(O)c2ncc(Cc3ccc(F)cc3)cc12	184 to 185 °C
COC(=O)c1cc(C(=O)NC2CCN(C(C)=O)CC2)c2cc(Cc3ccc(F)cc3)cnc2c1O	214 to 215 °C
COC(=O)c1cc(C(=O)NC2CCNCC2)c2cc(Cc3ccc(F)cc3)cnc2c1O	232 to 233 °C
COC(=O)c1cc(C(=O)NNCC(=O)N(C)C)c2cc(Cc3ccc(F)cc3)cnc2c1O	170 to 172 °C
COC(=O)c1cc(NC(=O)c2ccnc(C)c2)c2cc(Cc3ccc(F)cc3)cnc2c1O (as salt: salt)	229 to 230 °C

Second part, the compound after the results:

melting point	Structure (SMILES)
117 to 118 °C	COCCCC(=O)c1ncc2cc(Cc3ccc(F)cc3)cnc2c1O
192 to 193 °C	CC(=O)N1CCC(OC(=O)c2nc(C#CCNS(C)(=O)=O)c3cc(Cc4ccc(F)cc4)cnc3c2O)CC1
232 to 234 °C	CCCC(=O)c1cc(C(=O)O)c2cc(Cc3ccc(F)cc3)cnc2c1O
227 to 229 °C	CCCCC(=O)c1cc(C(=O)O)c2cc(Cc3ccc(F)cc3)cnc2c1O
195 to 197 °C	O=C1CCc2cc3cc(Cc4ccc(F)cc4)cnc3c(O)c21
166 to 168 °C	COC(=O)c1cc(C(C)=O)c2cc(Cc3ccc(F)cc3)cnc2c1O
90 to 91 °C	CCN(C=O)c1cc(C(=O)OC)c(O)c2ncc(Cc3ccc(F)cc3)cc12
131 to 133 °C	COC(=O)c1cc(C(=O)OCc2ccccc2)c2cc(Cc3ccc(F)cc3)cnc2c1O
139 to 141 °C	COC(=O)C=Cc1cc(C(=O)OC)c(O)c2ncc(Cc3ccc(F)cc3)cc12
235 to 237 °C	COC(=O)c1cc(C=CC(=O)O)c2cc(Cc3ccc(F)cc3)cnc2c1O
254 to 256 °C	COC(=O)c1cc(CCC(=O)O)c2cc(Cc3ccc(F)cc3)cnc2c1O
250 to 251 °C	COC(=O)c1cc(NC(=O)C2CCCCC2)c2cc(Cc3ccc(F)cc3)cnc2c1O
189 to 191 °C	CNC(=S)Nc1cc(C(=O)OC)c(O)c2ncc(Cc3ccc(F)cc3)cc12
230 to 232 °C	COC(=O)c1cc(NC(=O)c2ccccc2Cl)c2cc(Cc3ccc(F)cc3)cnc2c1O
97 to 99 °C	CC(=O)N1CCC(OC(=O)c2cc(C(=O)NCCCO)c3cc(Cc4ccc(F)cc4)cnc3c2O)CC1
251 to 253 °C	COC(=O)c1cc(C(=O)NCCNC(C)=O)c2cc(Cc3ccc(F)cc3)cnc2c1O
149 to 150 °C	COC(=O)c1cc(C(=O)N2COCC2(C)C)c2cc(Cc3ccc(F)cc3)cnc2c1O
184 to 185 °C	COC(=O)c1cc(C(=O)NNC(=O)c2cccnc2)c2cc(Cc3ccc(F)cc3)cnc2c1O
212 to 213 °C	COC(=O)c1cc(C(=O)NC2CCCCC2)c2cc(Cc3ccc(F)cc3)cnc2c1O
> 250 °C	COC(=O)c1cc(C(=O)NN2CCOCC2)c2cc(Cc3ccc(F)cc3)cnc2c1O
216 to 217 °C	COC(=O)c1cc(C(=O)NCCF)c2cc(Cc3ccc(F)cc3)cnc2c1O
200 to 201 °C	CONC(=O)c1cc(C(=O)OC)c(O)c2ncc(Cc3ccc(F)cc3)cc12
178 to 179 °C	COC(=O)c1cc(C(=O)NCC(C)C)c2cc(Cc3ccc(F)cc3)cnc2c1O
238 to 239 °C	CCOC(=O)c1cc(C(=O)O)c2cc(Cc3ccc(F)cc3)cnc2c1O
